Data: patent US20120129842A1, “BISTHIAZOLE INHIBITORS OF PRO-MATRIX METALLOPROTEINASE ACTIVATION” (priority 2010, published 2012)

Key:
[1] = molecular target: proMMP13(1-268) (SEQ ID NO:7) (Homo sapiens, UniProt P45452); assay: ProMMP13/Plasmin P126 Activation Assay; type: biochemical; design: 6xHis (C); made in house; host or cells: HEK293 (transient, secreted); settings: 8 nM proMMP13, 16 nM plasmin, 40 min 37° C.
Method: On the day of assay, proMMP13(1-268) (SEQ ID NO:7) purified from HEK293 cells and plasmin were diluted to 160 nM and 320 nM, respectively, in assay buffer. The reaction volume was 50 μL. […] The plate was sealed and incubated for 40 min at 37° C. […] Plasmin was not reactive towards P-126 substrate under these conditions.

proMMP9 = molecular target: T1, proMMP9 (Rattus norvegicus, UniProt P50282); assay: Activation of proMMP9 in rat synoviocyte cultures (Western blot); type: cell-based; settings: 80 kD band, pAb-1246
T1 construct: endogenous in cells; host or cells: primary synoviocytes from arthritic female Lewis rats, TNFα-stimulated in collagen gels
From the text: A primary synoviocytes line was derived from the periarticular tissue of arthritic rats. Arthritis was induced in female Lewis rats following an i.p. administration of streptococcal cell wall peptidoglycan polysaccharides (J Exp Med 1977; 146:1585-1602). Rats with established arthritis were sacrificed, and hind-limbs were severed, immersed briefly in 70% ethanol, and placed in a sterile hood. The skin was removed and the inflamed tissue surrounding the tibia-tarsal joint was harvested using a scalpel. Tissue from six rats was pooled, minced to approximately 8 mm^3 pieces, and cultured in Dulbecco's Modified Eagle's Medium (DMEM) containing 15% fetal calf serum (FCS). In the following weeks, cells migrated out of the tissue piece, proliferated, and formed a monolayer of adherent cells. The synoviocytes were lifted from culture plates with 0.05% trypsin and passaged weekly at 1:4 ratios in DMEM containing 10% FCS. Synoviocytes were used at passage 9 to investigate the ability of Example 64 to inhibit the maturation of MMP9 to active form.
Rat synoviocytes spontaneously expressed and activated MMP9 when cultured in collagen gels and stimulated with tumor necrosis factor-alpha (TNFα) (FIG. 1 and Table 3). Eight volumes of an ice-cold solution of 3.8 mg/mL rat tail collagen (Sigma Cat #C3867-1VL) were mixed with 1 volume of 1 M sodium bicarbonate and 1 volume of 10× Roswell Park Memorial Institute medium. The pH of the mixture was adjusted to pH 7 with 1 N sodium hydroxide and equal volumes of the pH-adjusted collagen solution were mixed with DMEM containing 0.8 million synoviocytes per mL. One half mL volumes were dispensed into Costar 24-well culture dishes and placed for one hr at 37° C. and 5% CO2, during which time the collagen solution formed a gel. Individual gels were dislodged into wells of 12-well Costar plates containing 1 mL/well of DMEM adjusted to contain 0.05% BSA and 100 ng/mL mouse TNFα (R&D Systems Cat #410-MT-010). […] After overnight culture at 37° C. and 5% CO2, wells were adjusted to contain an additional 0.5 mL of DMEM containing 0.05% BSA and Example 64 at 4× the final desired concentration (final culture volumes were 2 mL). The plates were cultured an additional 48 hrs, at which time 1 mL of conditioned media were harvested into fresh eppendorf tubes containing 40 μL/mL of a 50% slurry of gelatin-conjugated sepharose (GE Healthcare Cat #17-0956-01). Samples were rotated for 2 hrs at 4° C. before centrifugation 1 min×200 g. Supernatants were discarded. The gelatin-sepharose pellets were washed once with 1 mL of ice cold DMEM, resuspended in 50 μL of 2× reducing Leamli buffer and heated 5 min at 95° C. […] Chemiluminesence signal was analyzed using a ChemiDoc imaging system (BioRad Laboratories) and Quantity One® image software. […]

T1 sequence (P50282 20-708 limits assumed): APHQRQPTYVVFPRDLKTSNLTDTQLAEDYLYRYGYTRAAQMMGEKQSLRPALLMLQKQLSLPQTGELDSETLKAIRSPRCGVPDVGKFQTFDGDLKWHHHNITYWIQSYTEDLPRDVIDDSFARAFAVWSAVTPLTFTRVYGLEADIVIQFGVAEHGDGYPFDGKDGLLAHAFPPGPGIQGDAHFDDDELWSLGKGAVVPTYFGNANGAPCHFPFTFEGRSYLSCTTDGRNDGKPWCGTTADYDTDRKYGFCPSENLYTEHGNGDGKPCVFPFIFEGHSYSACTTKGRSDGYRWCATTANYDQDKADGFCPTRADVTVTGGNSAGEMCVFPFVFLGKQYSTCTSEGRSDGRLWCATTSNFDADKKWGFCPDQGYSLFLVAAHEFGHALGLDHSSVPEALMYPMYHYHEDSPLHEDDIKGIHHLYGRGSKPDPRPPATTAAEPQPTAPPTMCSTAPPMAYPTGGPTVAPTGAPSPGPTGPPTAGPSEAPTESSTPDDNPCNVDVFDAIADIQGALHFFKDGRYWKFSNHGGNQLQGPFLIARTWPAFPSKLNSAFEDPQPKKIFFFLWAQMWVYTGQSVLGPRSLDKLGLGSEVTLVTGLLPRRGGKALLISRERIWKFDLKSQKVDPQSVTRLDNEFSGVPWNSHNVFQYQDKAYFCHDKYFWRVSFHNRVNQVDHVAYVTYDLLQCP

Structure (SMILES): Cc1nc(C)c(-c2csc(Nc3cc(S(N)(=O)=O)ccc3OC(C)C)n2)s1 [Example 64, 3-(2′,4′-Dimethyl-[4,5′]bithiazolyl-2-ylamino)-4-isopropoxy-benzenesulfonamide.HBr]
- IC50 [1]: 3.3 µM
- inhibition at 0.37 µM (proMMP9; 0.37 μM): 12%
- inhibition at 1.1 µM (proMMP9; 1.1 μM): 46%
- inhibition at 3.3 µM (proMMP9; 3.3 μM): 86%
- inhibition at 10 µM (proMMP9; 10 μM): 97%
